Test results: patent US20250296961A1, “ANTIMICROBIAL PEPTIDES FOR REMINERALIZATION OF TEETH AND PREVENTION OF DENTAL CARIES” (The University of Hong Kong, priority 2021, published 2025)

Legend:
S. mutans [1] = assay: Anti-planktonic bacterial ability, MBC (Example 2); assay type: cell-based, S. mutans (ATCC 35668)
Protocol: (§1) S. mutans (ATCC 35668, ATCC, Manassas, USA), S. gordonii (ATCC 35105, ATCC, Manassas, USA), and S. sanguinis (ATCC 10556, ATCC, Manassas, USA) strains were cultured in brain-heart infusion broth (BHI, Difco Laboratories, Detroit, USA) at 37° C. under anaerobic conditions (85% N2, 10% H2, and 5% CO2). Bacteria were harvested by centrifugation (5000 rpm, 10 min), washed once with sodium phosphate-buffered saline (PBS, 10 mM, pH=7.2), and resuspended in BHI at a concentration of 1×10^6 CFU mL^−1.
(§2) Each well was seeded with 10 μL S. mutans suspension, S. gordonii suspension, and S. sanguinis suspension, respectively. […] The bacterial growth was assessed by measuring the absorbance at 595 nm using a microplate reader after a 24-hour incubation. Subsequently, 10 μL of bacterial suspension from each well were plated on horse blood agar plates and incubated at 37° C. for 48 h. The antibacterial activities of AMPs were evaluated.

[2] = Demineralization assay of peptide-coated enamel (Example 1); design: species or system human; details: demineralization solution 7 days
Protocol: (§3) 3×3×1.5 mm^3 (number: 197) tooth slices were prepared using a water-cooled diamond saw (IsoMet low-speed saw, Buehler, Lake Bluff, IL, USA). One working surface of complete enamel tissue from each tooth slice was generated using the MicroCT Skyscan 1172 (Bruker MicroCT, Kontich, Belgium). The enamel working side of the tooth slice was polished and other sides marked with acid-proof nail polish. All tooth slices were cleaned and stored in deionized water at 4° C.
Tooth slices (N=30) were immersed in 8 μmol/mL P-113, P-113-DPS, P-113-DA, P-113-SK, Sp-H5 (n=5 for each) solutions (in 10 mM HEPES) or HEPES (control) overnight. Tooth slices were incubated in 2 mL demineralization solution (2.2 mM CaCl2), 2.2 mM NaH2PO4, 0.05 M acetic acid, pH 4.5) for 7 days at 37° C. Lesions depths were analyzed by MicroCT Skyscan 1172. Mineral calcium (Ca) or phosphorus (P) concentrations before and after immersion were measured using Inductively Coupled Plasma Optical Emission Spectrometer (ICP-OES; Spectro Arcos, Kleve, Germany). Ca/P loss was expressed as mM/cm^2. The mean values of Ca/P loss were analyzed for each group using ANOVA at the 1% c significance level.

S. mutans [3] = assay: Anti-planktonic bacterial ability, MIC and MBC (Example 1); assay type: cell-based, Streptococcus mutans (ATCC 35668)
Protocol: Streptococcus mutans (ATCC 35668, ATCC, Manassas, USA) were cultured in Horse Blood Medium under anaerobic (85% N2, 10% H2, and 5% CO2) conditions at 37° C. Cells were harvested by centrifugation (5000 rpm, 10 min), washed once with 10 mM sodium phosphate-buffered saline (PBS, pH 7.2), and resuspended in brain-heart infusion broth (BHI, Difco Laboratories, Detroit, USA) at a concentration of 10^6 CFU/mL.
Two-fold serial dilutions (in 10 mM HEPES) of P-113, P-113-DPS, P-113-DA, P-113-SK, and Sp-H5 prepared in 25% BHI medium were pipetted into a 96-well cell culture plate at final concentrations from 0.125-128 μmol/mL [100 μL/well]. Each well was seeded with 10 μL bacterial suspension at a final concentration of 10^6 CFU/mL. Sp-H5 with bacterial cells and 25% BHI medium with and without bacterial cells in 10 mM HEPES buffer (pH 7) were used as the positive, negative, and blank control group, respectively. After a 24-h incubation, absorbance was measured at 595 nm using a microplate reader to assess cell growth. […] The minimal bactericidal concentration (MBC) was defined as the lowest concentration of peptide resulting in no colony formation on agar plates after incubation. 10 μL of cell suspension from each well were plated on horse blood agar plates and incubated at 37° C. for 48 h. All determinations were conducted in triplicate experiments.

S. sanguinis = assay: Anti-planktonic bacterial ability, MBC (Example 2); assay type: cell-based, S. sanguinis (ATCC 10556)
Protocol: as §1, §2

[4] = Remineralization assay of peptide-coated enamel (Example 1); design: species or system human; details: 8 μmol/mL coating, remineralization solution 24 h, FE-SEM
Protocol: as §3
The enamel working surface of tooth slices (N=30) was acid-etched in 37% phosphoric acid for 1 min and rinsed with deionized water for 1 min. The slices were immersed in 8 μmol/mL P-113, P-113-DPS, P-113-DA, P-113-SK, Sp-H5 (n=5 for each) solutions (in 10 mM HEPES) or HEPES (control) overnight. All tooth slices were incubated in 7 mL remineralization solution (2.58 mM CaCl2)·2H2O, 1.55 mM KH2PO4, 10 mg/L NaF, 180 mM NaCl, 50 mM Tris-HCl, pH 7.6) for 24 h. The enamel surface and cross-section morphology were analyzed by FE-SEM (Hitachi, S4800). Ca/P concentrations in the solutions before and after immersion were calculated by ICP-OES. The mean values for Ca/P gain were analyzed using ANOVA at the 1‰ significance level.

[5] = Adsorption capacity assay: peptides with HA particles (Micro BCA); assay type: binding
Protocol: The adsorption of P-113, P-113-DPS, P-113-DA, and P-113-SK to HA particles (Sigma Chemical Co., St Louis, USA) was measured using the Micro BCA method with Sp-H5 as the control group. Solutions of P-113, P-113-DPS, P-113-DA, P-113-SK and Sp-H5 in 10 mM HEPES buffer (pH 7) were diluted to 10 nmol/mL concentrations, and 200 μL was placed into each tube (P-113, N=10; P-113-DPS, N=10; P-113-DA, N=10; P-113-SK, N=10; and Sp-H5, N=10). Peptide solutions were mixed with (n=5) or without (n=5) HA particles (20 mg/tube) in each group. Tubes were placed onto a rotator overnight at 37° C. for complete reaction. Tubes containing the peptide solution and HA were centrifuged (13000 rpm, 1 min) and the supernatant collected. Bovine serum albumin (BSA) standard solutions (working range=5-250 μg/mL) and working reagent were prepared using the Pierce BCA Protein Assay Kit (Rockford, IL, USA). Working reagents (100 μL/well) were added to a 96-well plate, followed by standard and peptide solutions (100 μL/well). The Plate was incubated in the dark for 30 min and the absorbance (562 nm) measured using a plate reader. The concentration (C) of the BSA standard solution was linear with the absorbance (A) at 562 nm. The function of C=a*A+b was determined (a and b as constants). The final concentration (the peptide solution mixed with HA) and the initial concentration (the peptide solution without HA) were computed using the function and the generated absorbance data of the peptide solution mixed with and without HA.

AKRHHGYKRKFH [Peptide P-113, non-specific AMP, portion of human histatin 5]
MBC, S. mutans (S. mutans [1]): >128 μM mL^−1
Maximum lesion depth ([2]; 8 μmol/mL coating, MicroCT): 115 μm
Ca losses vs control group [2]: Significant differences were not detected
MBC (S. mutans [3]): >128 μM mL^−1
MIC (S. mutans [3]; 24 h): 32 μM mL^−1
MBC, S. sanguinis (S. sanguinis): >128 μM mL^−1
Thickness of the regenerated crystal layer on the enamel surface [4]: 6 μm
Concentration change (95% CI) ([5]; initial vs final concentration with HA particles): 0.29 (−0.01-0.61)
Final concentration (Mean ± SD) ([5]; peptide solution mixed with HA particles (20 mg/tube), overnight 37° C.): 9.86 ± 0.23 nM mL^−1
